Species: Rattus norvegicus
Test: Open TG-GATES - Regimen: Single
Type: toxicity, organism-based, Sprague-Dawley
Design: regimen Single, gender Male, age 6 weeks
Settings: in vivo, po, 0 mg/kg, route gavage, dose level Control; for APTT / Bas / Eos / Fbg / Hb / Ht / Lym / MCHC / MCV / Mono / PT / Plat / RBC / Ret / WBC: tissue Blood; for KIDNEY_L / KIDNEY_R / KIDNEY_TOTAL: tissue Kidney; for LIVER: tissue Liver; for ALP / ALT / AST / BUN / CRE / DBIL / GLC / K / LDH / Na / PL / RALB / TBIL / TC / TG / TP / gamma-GTP: tissue Plasma

Molecule `O=C1NC(=O)C(c2ccccc2)(c2ccccc2)N1` [PHENYTOIN] has a TERMINAL_BW (3 h) of 209.3 g, an APTT (3 h) of 16.8 s and a Bas (3 h) of 0.4%. For the same molecule, the Eos (3 h) was 0.8%, the Fbg (3 h) was 267 mg/dL and the Hb (3 h) was 13.4 g/dL. For the same molecule, the Ht (3 h) was 40.2%, the Lym (3 h) was 78.6% and the MCHC (3 h) was 33.3%. The MCV (3 h) was 62.2 fL, the Mono (3 h) was 3% and the PT (3 h) was 13.9 s. The Plat (3 h) was 116.9 x10_4/uL, the RBC (3 h) was 646.8 x10_4/ul and the Ret (3 h) was 8.3%. It also gave a WBC (3 h) of 81.2 x10_2/uL, a KIDNEY_L (3 h) of 0.9 g and a KIDNEY_R (3 h) of 0.9 g. For the same molecule, the KIDNEY_TOTAL (3 h) was 1.9 g, the LIVER (3 h) was 9.6 g and the ALP (3 h) was 1709.4 IU/L. The ALT (3 h) was 37 IU/L, the AST (3 h) was 75.6 IU/L and the BUN (3 h) was 9.8 mg/dL. It also gave a CRE (3 h) of 0.2 mg/dL, a DBIL (3 h) of 0.018 mg/dL and a GLC (3 h) of 177.4 mg/dL. For the same molecule, the K (3 h) was 4.1 meq/L, the LDH (3 h) was 127.8 IU/L and the Na (3 h) was 141.6 meq/L. For the same molecule, the PL (3 h) was 145.2 mg/dL, the RALB (3 h) was 2.5 g/dL and the TBIL (3 h) was 0.056 mg/dL. The TC (3 h) was 75.8 mg/dL, the TG (3 h) was 61.4 mg/dL and the TP (3 h) was 5.4 g/dL. For the same molecule, the gamma-GTP (3 h) was 1.2 IU/L, the TERMINAL_BW (6 h) was 207.9 g and the APTT (6 h) was 16.8 s. The Bas (6 h) was 0.6%, the Eos (6 h) was 0.8% and the Fbg (6 h) was 297.4 mg/dL. For the same molecule, the Hb (6 h) was 13.3 g/dL, the Ht (6 h) was 39.4% and the Lym (6 h) was 79.4%. The MCHC (6 h) was 33.6%, the MCV (6 h) was 61.5 fL and the Mono (6 h) was 3%. For the same molecule, the PT (6 h) was 14.1 s, the Plat (6 h) was 121.6 x10_4/uL and the RBC (6 h) was 641.4 x10_4/ul. The Ret (6 h) was 7.5%, the WBC (6 h) was 97.9 x10_2/uL and the KIDNEY_L (6 h) was 0.9 g. The KIDNEY_R (6 h) was 0.9 g, the KIDNEY_TOTAL (6 h) was 1.8 g and the LIVER (6 h) was 8.5 g. The ALP (6 h) was 1520.6 IU/L, the ALT (6 h) was 34.4 IU/L and the AST (6 h) was 67.6 IU/L. The BUN (6 h) was 8.6 mg/dL, the CRE (6 h) was 0.2 mg/dL and the DBIL (6 h) was 0.018 mg/dL. The GLC (6 h) was 184.2 mg/dL, the K (6 h) was 4.3 meq/L and the LDH (6 h) was 96.2 IU/L. It also gave a Na (6 h) of 142.2 meq/L, a PL (6 h) of 139.6 mg/dL and an RALB (6 h) of 2.5 g/dL. It also gave a TBIL (6 h) of 0.05 mg/dL, a TC (6 h) of 77.8 mg/dL and a TG (6 h) of 44.2 mg/dL. It also gave a TP (6 h) of 5.4 g/dL, a gamma-GTP (6 h) of 1.4 IU/L and a TERMINAL_BW (9 h) of 205.9 g. The APTT (9 h) was 15.5 s, the Bas (9 h) was 0.6% and the Eos (9 h) was 0.8%. The Fbg (9 h) was 295.6 mg/dL, the Hb (9 h) was 13.5 g/dL and the Ht (9 h) was 40.5%. It also gave a Lym (9 h) of 76.2%, an MCHC (9 h) of 33.4% and an MCV (9 h) of 61.1 fL. For the same molecule, the Mono (9 h) was 2.6%, the PT (9 h) was 13.8 s and the Plat (9 h) was 126 x10_4/uL. It also gave an RBC (9 h) of 663.4 x10_4/ul, a Ret (9 h) of 7.6% and a WBC (9 h) of 79.7 x10_2/uL. For the same molecule, the KIDNEY_L (9 h) was 0.9 g, the KIDNEY_R (9 h) was 0.9 g and the KIDNEY_TOTAL (9 h) was 1.8 g. For the same molecule, the LIVER (9 h) was 8.7 g, the ALP (9 h) was 1437.2 IU/L and the ALT (9 h) was 29.8 IU/L. It also gave an AST (9 h) of 68.8 IU/L, a BUN (9 h) of 9.8 mg/dL and a CRE (9 h) of 0.2 mg/dL. For the same molecule, the DBIL (9 h) was 0.014 mg/dL, the GLC (9 h) was 177.4 mg/dL and the K (9 h) was 4.2 meq/L. For the same molecule, the LDH (9 h) was 93.4 IU/L, the Na (9 h) was 142.4 meq/L and the PL (9 h) was 131.6 mg/dL. For the same molecule, the RALB (9 h) was 2.5 g/dL, the TBIL (9 h) was 0.052 mg/dL and the TC (9 h) was 72.4 mg/dL. It also gave a TG (9 h) of 40 mg/dL, a TP (9 h) of 5.5 g/dL and a gamma-GTP (9 h) of 1.6 IU/L. For the same molecule, the TERMINAL_BW (24 h) was 224.3 g, the APTT (24 h) was 17.7 s and the Bas (24 h) was 0.4%. The Eos (24 h) was 1%, the Fbg (24 h) was 273.4 mg/dL and the Hb (24 h) was 13.2 g/dL. It also gave a Ht (24 h) of 39.1%, a Lym (24 h) of 79.8% and an MCHC (24 h) of 33.7%. The MCV (24 h) was 62.6 fL, the Mono (24 h) was 2.2% and the PT (24 h) was 14.4 s. The Plat (24 h) was 121.9 x10_4/uL, the RBC (24 h) was 625.6 x10_4/ul and the Ret (24 h) was 7.8%. The WBC (24 h) was 108.2 x10_2/uL, the KIDNEY_L (24 h) was 1 g and the KIDNEY_R (24 h) was 1 g. The KIDNEY_TOTAL (24 h) was 2.1 g, the LIVER (24 h) was 10.6 g and the ALP (24 h) was 1864.2 IU/L. For the same molecule, the ALT (24 h) was 42.4 IU/L, the AST (24 h) was 75.2 IU/L and the BUN (24 h) was 14.8 mg/dL. It also gave a CRE (24 h) of 0.2 mg/dL, a DBIL (24 h) of 0.024 mg/dL and a GLC (24 h) of 187.6 mg/dL. For the same molecule, the K (24 h) was 4 meq/L, the LDH (24 h) was 95.6 IU/L and the Na (24 h) was 142.6 meq/L. The PL (24 h) was 152 mg/dL, the RALB (24 h) was 2.6 g/dL and the TBIL (24 h) was 0.042 mg/dL. The TC (24 h) was 74.8 mg/dL and the TG (24 h) was 100.2 mg/dL.

Reference: ChEMBL document CHEMBL3885861, “Open TG-GATES”
